We go through four compounds from ChEMBL document CHEMBL1201862, “PubChem BioAssay data set” (2004).

Holding throughout (test): growth of human tumour cells (NCI), 48 h
The test system of assay [1] is COLO 205.
Assay [2] relates to DU-145.
In assay [3] the test system is HCC 2998.
For assay [4], the system named is HCT-116.
The subject of assay [5] is HL-60.
The subject of assay [6] is MCF7.
For assay [7], the system named is MDA-MB-435.
The test system of assay [8] is MOLT-4.
The test system of assay [9] is NCI-H522.
The subject of assay [10] is NCI/ADR-RES.
Assay [11] deals with OVCAR-4.
For assay [12], the system named is OVCAR-5.
The test system of assay [13] is OVCAR-8.
The test system of assay [14] is RPMI-8226.
In assay [15] the test system is SF-295.
The subject of assay [16] is SK-MEL-28.
For assay [17], the system named is SK-MEL-2.
For assay [18], the system named is SNB-75.
In assay [19] the test system is U-251.
The subject of assay [20] is UACC-257.

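These data come from cells grown in 96-well plates and exposed to compound for 48 hours at five concentrations. At the GI50, growth is halved.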 Activity calls are given as the source filed them. No stated cut-off is given here; in the data, active = GI50 up to about 1.1 µM and inactive = higher.

Turning to `CCOC(=O)C1OC(C2(C)OC3(OC4(C=CC3O)OC(C(C)C(=O)C(C)C(O)C(C)CC(C)c3c(Cl)cc(C)c(O)c3C(=O)O)C(C)CC4C)C(C)C2OC)CC1O` (stereo not given), the GI50 in assay [1] is 0.818 µM (active); in assay [2], 0.598 µM (active); in assay [3], 0.034 µM (active); in assay [4] it was 0.693 µM (active); in assay [5], 0.542 µM (active); in assay [6] it was 0.181 µM (active). The GI50 in assay [7] is 0.286 µM (active); in assay [8], 0.117 µM (active); in assay [9], < 0.0803 µM (active); in [10], 1.24 µM (inactive); in assay [11], 0.544 µM (active); in assay [12], 2.69 µM (inactive). The GI50 in assay [13] was 0.771 µM (active); in assay [14], 0.54 µM (active); in assay [15], 0.257 µM (active); in [16], 0.418 µM (active); in assay [17], 0.493 µM (active); in assay [18], 0.163 µM (active). Further, the GI50 is 0.189 µM (active) in [19] and 0.577 µM (active) in assay [20].

Turning to `CCOc1nc2c(N3CCCC3)nc(N3CCNCC3)nc2nc1NCc1ccccc1`, the GI50 was 0.574 µM (active) in assay [1]; 0.944 µM (active) in [2]; 1.34 µM (inactive) in [3]; 0.923 µM (active) in assay [4]; 1.4 µM (inactive) in assay [5]; 1.53 µM (inactive) in assay [6]. For the same compound, the GI50 in [7] is 1.34 µM (inactive); in assay [8], 1.09 µM (active); in assay [9], 0.82 µM (active); in [10] it was 2.77 µM (inactive); in assay [11], 2.42 µM (inactive); in assay [12] it was 4.14 µM (inactive). Besides, the GI50 in [13] was 1.73 µM (inactive); in [14], 1.39 µM (inactive); in [15] it was 1.76 µM (inactive); in [16] it was 1.79 µM (inactive); in assay [17] it was 1.66 µM (inactive); in assay [18], 0.975 µM (active). Besides, the GI50 in assay [19] is 1.17 µM (inactive); in [20] it was 1.74 µM (inactive).

As for `FC(F)(F)c1ccc2c(-c3cc[nH]c3)ccnc2c1`, the GI50 in assay [1] was 23.6 µM (inactive); in assay [2], 32.5 µM (inactive); in [3], > 100 µM (inactive); in assay [4], 32.5 µM (inactive); in [5], 16.7 µM (inactive); in assay [6], 30.8 µM (inactive). Moreover, the GI50 was 35 µM (inactive) in assay [7]; 19.4 µM (inactive) in [8]; 32.4 µM (inactive) in assay [9]; 37.1 µM (inactive) in assay [10]; 53.2 µM (inactive) in assay [11]; 44.9 µM (inactive) in assay [12]. Further, the GI50 in assay [13] was 34.1 µM (inactive); in [14] it was 34.2 µM (inactive); in [15] it was 30 µM (inactive); in assay [16], 35.6 µM (inactive); in [17], > 100 µM (inactive); in [18], 14.4 µM (inactive). The results for the GI50 in assay [19] and in [20] were 44.3 µM (inactive) and 31.4 µM (inactive), respectively.

Take `O=C1C2=C(CC3=C(C2)CS(=O)(=O)C3)C(=O)C2=C1CC1=C(C2)CS(=O)(=O)C1`: the GI50 in [1] is 13 µM (inactive); in assay [2] it was 48.2 µM (inactive); in assay [3] it was 20.6 µM (inactive); in assay [4], 11.7 µM (inactive); in [5], 8.93 µM (inactive); in assay [6], 13.2 µM (inactive). Also, the GI50 in assay [7] was 9.18 µM (inactive); in assay [8], 23.9 µM (inactive); in assay [9] it was 11.3 µM (inactive); in assay [10] it was 16.3 µM (inactive); in [11], 10.9 µM (inactive); in [12], 43.4 µM (inactive). Also, the GI50 was 24.2 µM (inactive) in assay [13]; 28.6 µM (inactive) in assay [14]; 26.7 µM (inactive) in assay [15]; > 43.1 µM (inactive) in assay [16]; 32.4 µM (inactive) in [17]; > 20.9 µM (inactive) in [18]. The results for the GI50 in [19] and in assay [20] were 13.5 µM (inactive) and 29 µM (inactive), respectively.
